Experimental data published in the NIST ThermoML archive (doi:10.1016/j.jct.2013.08.034).

Assay: xn = mol fraction of the nth substance listed
Conditions: 101 kPa, Liquid; for mass density: Vibrating tube method; for electrical conductivity: Conductivity Meter Jenco 3107; for viscosity: Cone and plate viscometry

CC1COC(=O)O1 (centres undefined) [4-methyl-1,3-dioxolan-2-one] + CCCC[n+]1ccn(C)c1.O=S(=O)([N-]S(=O)(=O)C(F)(F)F)C(F)(F)F
Conditions	electrical conductivity [S/m]	mass density [kg/m3]	viscosity [mPa·s]
308.15 K, x2 = 0.7989	–	1410.26	–
308.15 K, x2 = 0.898	–	1418.04	–
313.15 K, x2 = 0	–	–	2.05
313.15 K, x2 = 0.0146	–	1194.33	–
313.15 K, x2 = 0.0296	–	1205.22	–
313.15 K, x2 = 0.0453	–	1215.97	–
313.15 K, x2 = 0.0502	1.14	–	–
313.15 K, x2 = 0.0616	–	1226.46	–
313.15 K, x2 = 0.0732	–	1233.52	–
313.15 K, x2 = 0.0997	–	1248.42	–
313.15 K, x2 = 0.1	–	–	3.21
313.15 K, x2 = 0.1004	1.44	–	–
313.15 K, x2 = 0.2001	1.66	–	–
313.15 K, x2 = 0.2002	–	–	4.59
313.15 K, x2 = 0.2004	–	1293.64	–
313.15 K, x2 = 0.3002	1.52	–	–
313.15 K, x2 = 0.3007	–	–	6.34
313.15 K, x2 = 0.3081	–	1328.25	–
313.15 K, x2 = 0.3998	–	–	8.29
313.15 K, x2 = 0.4004	–	1350.46	–
313.15 K, x2 = 0.4005	1.4	–	–
313.15 K, x2 = 0.5004	–	–	10.77
313.15 K, x2 = 0.5007	1.25	–	–
313.15 K, x2 = 0.5021	–	1369.47	–
313.15 K, x2 = 0.5839	–	1381.78	–
313.15 K, x2 = 0.6002	–	–	13.57
313.15 K, x2 = 0.6003	1.11	–	–
313.15 K, x2 = 0.6902	–	1394.71	–
313.15 K, x2 = 0.6979	–	–	16.55
313.15 K, x2 = 0.6989	0.971	–	–
313.15 K, x2 = 0.7989	–	1405.28	–
313.15 K, x2 = 0.8001	0.85	–	–
313.15 K, x2 = 0.8015	–	–	20.47
313.15 K, x2 = 0.8959	0.73	–	23.63
313.15 K, x2 = 0.898	–	1413.08	–
318.15 K, x2 = 0	–	–	1.9
318.15 K, x2 = 0.0146	–	1188.81	–
318.15 K, x2 = 0.0296	–	1199.72	–
318.15 K, x2 = 0.0453	–	1210.48	–
318.15 K, x2 = 0.0502	1.23	–	–
318.15 K, x2 = 0.0616	–	1220.94	–
318.15 K, x2 = 0.0732	–	1228.04	–
318.15 K, x2 = 0.0997	–	1243.05	–
318.15 K, x2 = 0.1	–	–	2.89
318.15 K, x2 = 0.1004	1.59	–	–
318.15 K, x2 = 0.2001	1.81	–	–
318.15 K, x2 = 0.2002	–	–	4.17
318.15 K, x2 = 0.2004	–	1288.34	–
318.15 K, x2 = 0.3002	1.68	–	–
318.15 K, x2 = 0.3007	–	–	5.68
318.15 K, x2 = 0.3081	–	1323.02	–
318.15 K, x2 = 0.3998	–	–	7.31
318.15 K, x2 = 0.4004	–	1345.37	–
318.15 K, x2 = 0.4005	1.57	–	–
318.15 K, x2 = 0.5004	–	–	9.37
318.15 K, x2 = 0.5007	1.41	–	–
318.15 K, x2 = 0.5021	–	1364.43	–
318.15 K, x2 = 0.5839	–	1376.72	–
318.15 K, x2 = 0.6002	–	–	11.75
318.15 K, x2 = 0.6003	1.26	–	–
318.15 K, x2 = 0.6902	–	1389.72	–
318.15 K, x2 = 0.6979	–	–	14.29
318.15 K, x2 = 0.6989	1.11	–	–
318.15 K, x2 = 0.7989	–	1400.29	–
318.15 K, x2 = 0.8001	0.961	–	–
318.15 K, x2 = 0.8015	–	–	17.5
318.15 K, x2 = 0.8959	0.828	–	20.04
318.15 K, x2 = 0.898	–	1408.1	–
323.15 K, x2 = 0	–	–	1.78
323.15 K, x2 = 0.0146	–	1183.28	–
323.15 K, x2 = 0.0296	–	1194.23	–
323.15 K, x2 = 0.0453	–	1204.99	–
323.15 K, x2 = 0.0502	1.32	–	–
323.15 K, x2 = 0.0616	–	1215.52	–
323.15 K, x2 = 0.0732	–	1222.56	–
323.15 K, x2 = 0.0997	–	1237.51	–
323.15 K, x2 = 0.1	–	–	2.68
323.15 K, x2 = 0.1004	1.74	–	–
323.15 K, x2 = 0.2001	1.97	–	–
323.15 K, x2 = 0.2002	–	–	3.81
323.15 K, x2 = 0.2004	–	1283	–
323.15 K, x2 = 0.3002	1.85	–	–
323.15 K, x2 = 0.3007	–	–	5.14
323.15 K, x2 = 0.3081	–	1317.8	–
323.15 K, x2 = 0.3998	–	–	6.58
323.15 K, x2 = 0.4004	–	1340.2	–
323.15 K, x2 = 0.4005	1.74	–	–
323.15 K, x2 = 0.5004	–	–	8.34
323.15 K, x2 = 0.5007	1.57	–	–
323.15 K, x2 = 0.5021	–	1359.32	–
323.15 K, x2 = 0.5839	–	1371.65	–
323.15 K, x2 = 0.6002	–	–	10.31
323.15 K, x2 = 0.6003	1.41	–	–
323.15 K, x2 = 0.6902	–	1384.62	–
323.15 K, x2 = 0.6979	–	–	12.41
323.15 K, x2 = 0.6989	1.25	–	–
323.15 K, x2 = 0.7989	–	1395.23	–
323.15 K, x2 = 0.8001	1.1	–	–
323.15 K, x2 = 0.8015	–	–	15.15
323.15 K, x2 = 0.8959	0.93	–	17.34
323.15 K, x2 = 0.898	–	1403.08	–
328.15 K, x2 = 0	–	–	1.63
328.15 K, x2 = 0.0502	1.41	–	–
328.15 K, x2 = 0.1	–	–	2.47
328.15 K, x2 = 0.1004	1.89	–	–
328.15 K, x2 = 0.2001	2.12	–	–
328.15 K, x2 = 0.2002	–	–	3.45
328.15 K, x2 = 0.3002	2.06	–	–
328.15 K, x2 = 0.3007	–	–	4.68
328.15 K, x2 = 0.3998	–	–	5.94
328.15 K, x2 = 0.4005	1.92	–	–
328.15 K, x2 = 0.5004	–	–	7.41
328.15 K, x2 = 0.5007	1.74	–	–
328.15 K, x2 = 0.6002	–	–	9.19
328.15 K, x2 = 0.6003	1.57	–	–
328.15 K, x2 = 0.6979	–	–	11
328.15 K, x2 = 0.6989	1.4	–	–
328.15 K, x2 = 0.8001	1.25	–	–
328.15 K, x2 = 0.8015	–	–	13.3
328.15 K, x2 = 0.8959	1.07	–	15.12
333.15 K, x2 = 0	–	–	1.54
333.15 K, x2 = 0.1	–	–	2.31
333.15 K, x2 = 0.2002	–	–	3.22
333.15 K, x2 = 0.3007	–	–	4.26
333.15 K, x2 = 0.3998	–	–	5.37
333.15 K, x2 = 0.5004	–	–	6.66
333.15 K, x2 = 0.6002	–	–	8.17
333.15 K, x2 = 0.6979	–	–	9.7
333.15 K, x2 = 0.8015	–	–	11.7
333.15 K, x2 = 0.8959	–	–	13.26
